Activity calls are given as the source filed them. No cut-off for these calls is given here.
Columns and labels:
[1] = test system: A549; experiment: Antiproliferative activity against A549 cells by MTT assay; format: functional, cell-based; conditions: Homo sapiens
[2] = test system: HGC-27; experiment: Antiproliferative activity against HGC27 cells by MTT assay; format: functional, cell-based; conditions: Homo sapiens
[3] = test system: HGC-27; experiment: Cell cycle arrest in HGC27 cells by accumulation at G2/M phase at 50 uM after 24 hrs; format: functional; conditions: Homo sapiens, HGC-27, 24 h
[4] = test system: HGC-27; experiment: Antiproliferative activity against HGC27 cells at 50 uM by MTT assay; format: functional, cell-based; conditions: Homo sapiens
[5] = test system: A549; experiment: Cell cycle arrest in A549 cells by accumulation at G2/M phase at 50 uM after 24 hrs; format: functional, cell-based; conditions: Homo sapiens

Row | SMILES | Activity [4] | further results
1 | COc1ccc(Nc2ccc([N+](=O)[O-])c3ncnc(O)c23)cc1Cl | – | IC50 [1]: 20 µM; IC50 [2]: 20 µM
2 | COc1cc(Nc2ccc([N+](=O)[O-])c3ncnc(O)c23)cc(OC)c1OC | Active | inhibition at 50 µM [3]: 81%; Activity [5]: Active
3 | COC(=O)/C=C\c1ccc(C(=O)OCCOc2ccc(Nc3ccc([N+](=O)[O-])c4ncnc(O)c34)cc2)cc1 | Active | –
4 | O=[N+]([O-])c1ccc(Nc2ccc(OCCCN3CCOCC3)cc2)c2c(O)ncnc12 | Active | –
5 | O=[N+]([O-])c1ccc(Nc2ccc(OCc3ccccc3)c(Cl)c2)c2c(O)ncnc12 | Active | –
